Results reported in PMC5041982, “Small-molecule inhibition of STAT3 in radioresistant head and neck squamous cell carcinoma” (Oncotarget, 2016).
Where two headings read alike, the source gives them in different places.

How the values were obtained:
Assay type in all cases: cell-based
pSTAT1 (Tyr-701) = target: T1, pSTAT1 (Tyr-701) (Homo sapiens, UniProt P42224); assay: Luminex bead-based assay, G-CSF-induced pSTAT1 in Kasumi-1 cells
T1 construct: endogenous in cells; host or cells: Kasumi-1
T1 sequence (P42224 1-750): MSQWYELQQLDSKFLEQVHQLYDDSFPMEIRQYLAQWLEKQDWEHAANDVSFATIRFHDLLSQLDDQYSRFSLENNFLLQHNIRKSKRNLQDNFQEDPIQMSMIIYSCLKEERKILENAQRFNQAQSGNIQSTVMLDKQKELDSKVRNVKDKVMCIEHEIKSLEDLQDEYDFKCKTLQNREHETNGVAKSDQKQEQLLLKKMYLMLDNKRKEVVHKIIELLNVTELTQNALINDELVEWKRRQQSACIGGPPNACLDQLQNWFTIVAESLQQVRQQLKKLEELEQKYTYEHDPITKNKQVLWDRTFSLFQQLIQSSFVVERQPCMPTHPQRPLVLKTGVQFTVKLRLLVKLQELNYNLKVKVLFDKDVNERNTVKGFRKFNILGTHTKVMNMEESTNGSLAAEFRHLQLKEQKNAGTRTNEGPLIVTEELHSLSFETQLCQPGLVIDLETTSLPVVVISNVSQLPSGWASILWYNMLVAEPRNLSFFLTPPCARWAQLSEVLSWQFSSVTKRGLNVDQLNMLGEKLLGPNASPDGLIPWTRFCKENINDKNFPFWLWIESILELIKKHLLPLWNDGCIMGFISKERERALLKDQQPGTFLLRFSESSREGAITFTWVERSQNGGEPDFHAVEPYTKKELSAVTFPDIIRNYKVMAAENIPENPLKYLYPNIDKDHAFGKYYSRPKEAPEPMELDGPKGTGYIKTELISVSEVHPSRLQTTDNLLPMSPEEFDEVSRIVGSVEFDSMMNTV
Procedure: The equilibrium binding levels obtained ± compound were normalized (resonance obtained in the presence of compound ÷ the resonance obtained in the absence of compound × 100) and plotted against Log [nM] […] B. Inhibition of ligand-stimulated STAT phosphorylation, measured by phosphoflow. Serum-starved (1 hour) Kasumi-1 cells, pre-incubated with compound/DMSO (1 hour), were treated with G-CSF (10 ng/ml, 15 min, left two panels) or IFN-γ (10ng/ml, 15 min, right panel). Cells were permeabilized and stained with Alexa647-pSTAT3, and PE-pSTAT1 antibodies and analyzed on BD LSR2. FCS files were uploaded to Cytobank for pSTAT3 and pSTAT1 quantitation. Histograms depicting pSTAT3 and pSTAT1 levels are shown. C. Mean fluorescence (pSTAT3/1) levels were plotted as function the Log [M] compound, and IC50 calculated using GraphPad. […] D. Inhibition of ligand-stimulated STAT phosphorylation, measured by Luminex. Serum-starved (1 hour) Kasumi-1 cells, pre-incubated with compound/DMSO (0/0.1/0.3/1/3/10/100 μM, 1 hour), were treated with G-CSF (10 ng/ml, 15′). Total protein extracts of cells were assayed for pSTAT3, pSTAT1, and GAPDH levels by Luminex. […] These values were plotted as a function of Log [M] compound, and IC50 values calculated using GraphPad. […]
for analysis as described below. were determined by plotting % maximum response as a 3-D pharmacophore generation function of log concentration of compound and fitting the Each molecular chemical feature, including experimental points to a competitive binding model using hydrogen bond donor, hydrogen bond acceptor, positive a four parameter logistic equation: R = Rhigh − (Rhigh − R low)/ (1 + conc/A1)^A2, where R = percent response at and negative ionizable group, and hydrophobic region, inhibitor concentration, R = percent response with no was generated using the LigandScout application compound, R= percent response at highest compound high framework and projected into 3-D space. concentration, A2 = fitting parameter (slope) and A1 = low Feature-pairing IC50 (BIAevaluation Software version 4.1). […]

HN30 cells = assay: Anchorage independent growth (MTT); details: Homo sapiens
Procedure: (§1) GAPDH-normalized pSTAT3 or pSTAT1 values were divided by that for untreated cells and expressed in percentage. These values were plotted as a function of Log [M] compound, and IC50 values calculated using GraphPad. […] Viable cells quantitated using MTT. Relative % viability was measured by (viability after any treatment ÷ viability of untreated cells × 100) and plotted as a function of Log [M] […] C. […] Representative curves are shown.
(§2) Cells were cultured in triplicates in complete DMEM ± drug, in ultra-low attachment 96 well plates for 72 hrs or cell-culture treated plates for 48 hrs and viable cells were quantitated using MTT. Optical density (OD) was measured at 590 nm using a 96-well multi-scanner (EL-800 universal microplate reader, BioTek Inc, VT, USA). Relative % viability (viability after any treatment ÷ viability of untreated cells × 100) was plotted along Y-axis. At least 2 replicates experiments were performed and were used for IC50 calculation using GraphPad software.

SCC-35 cells = assay: Anchorage independent growth (MTT); details: Homo sapiens; SCC-35, 72 hrs; mean; read-out: IC50 Cell growth (MTT), anchorage independent
Procedure: as §1, §2

SCC-61 cells = assay: Anchorage independent growth (MTT); details: Homo sapiens; Figure 4C, SCC-61, 72 hrs; read-out: Anchorage Independent growth IC50, representative curve
Procedure: as §1, §2

UM-SCC-17B cells = assay: Anchorage independent growth (MTT); details: Homo sapiens, 72 hrs
Procedure: as §1, §2

COc1ccc(S(=O)(=O)Nc2cc(-c3c(O)ccc4ccccc34)c(O)c3ccccc23)cc1 [Compound C188-9]
IC50 (pSTAT1 (Tyr-701); Figure 2D, Kasumi-1, G-CSF, read-out: Luminex pSTAT1 (Tyr-701) IC50, representative experiment): 3 µM
IC50 (pSTAT1 (Tyr-701); Kasumi-1, mean, n ≥ 2, read-out: G-CSF Induced Phosphorylation (Luminex) pSTAT1 IC50): 4.1 ± 3.3 µM
IC50 (HN30 cells; Figure 4C, HN-30, 72 hrs, read-out: Anchorage Independent growth IC50, representative curve): 4.3 µM
IC50 (HN30 cells; HN30, 72 hrs, mean, read-out: IC50 Cell growth (MTT), anchorage independent): 4.4 ± 0.1 µM
IC50 (SCC-35 cells): 10.8 µM
IC50 (SCC-61 cells): 12.7 µM
IC50 (UM-SCC-17B cells; mean, read-out: IC50 Cell growth (MTT), anchorage independent): 0.7 ± 0.6 µM
IC50 (UM-SCC-17B cells; Figure 4C, read-out: Anchorage Independent growth IC50, representative curve): 1.1 µM
